Earlier results as cited in paper PMC2967214 (Journal of the American Chemical Society, 2010).

Tests used:
[1] = cited from earlier work
[2] = 25°C, 20 MHz; cited from earlier work

For `O=C(O)CN1CCN(CC(=O)O)CCN(CC(=O)O)CCN(CC(=O)O)CC1` [DOTA], the “thermodynamic and kinetic stability of Gd3+ complex” value [1] is listed as “high thermodynamic and kinetic stability”.
For Gadomer 17, the r1 relaxivity [2] is listed as 16.5 mM⁻¹ s⁻¹.
